Assay results taken from the supplement of paper PMC11061612.

What was measured:
Assay in all cases: Bliss excess, mean over the matrix (fraction); higher = more synergy
[1] = tested on: 23132-87 (Gastric Carcinoma)
Outline: (§1)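 Cell lines in DMEM/F12 or RPMI with 10% FBS were plated in 1536-well plates, held 24 hours at 37°C, 5% CO2, then given two-drug dose matrices for 72 hours (DMSO typically 0.2%). Viability was read by CellTiter-Glo 2.0 luminescence and scaled as inhibition from 0 (vehicle wells) to 1 (blank wells). Combination Emax is the second-highest inhibition in the matrix; Bliss excess is observed combination effect minus expected EA + EB − EA·EB, EA and EB being single-agent effects.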

[2] = tested on: CAL-120 (Breast Carcinoma)
Outline: as §1

[3] = tested on: CAL-62 (Thyroid Gland Carcinoma)
Outline: as §1

GB-1 (Glioblastoma) = tested on: GB-1 (Glioblastoma)
Outline: as §1

[4] = tested on: HCT-15 (Colorectal Carcinoma)
Outline: as §1

[5] = tested on: HSC-39 (Gastric Carcinoma)
Outline: as §1

[6] = tested on: L-1236 (Hodgkin's Lymphoma)
Outline: as §1

[7] = tested on: LB996-RCC (Kidney Carcinoma)
Outline: as §1

[8] = tested on: LXF-289 (Lung Adenocarcinoma)
Outline: as §1

[9] = tested on: OPM-2 (Plasma Cell Myeloma)
Outline: as §1

[10] = tested on: OVMIU (Ovarian Carcinoma)
Outline: as §1

[11] = tested on: PSN1 (Pancreatic Carcinoma)
Outline: as §1

[12] = tested on: RCM-1 (Colorectal Carcinoma)
Outline: as §1

[13] = tested on: REH (B-Lymphoblastic Leukemia)
Outline: as §1

[14] = tested on: RERF-GC-1B (Gastric Carcinoma)
Outline: as §1

[15] = tested on: RKN (Other Solid Carcinomas)
Outline: as §1

[16] = tested on: SU-DHL-10 (B-Cell Non-Hodgkin's Lymphoma)
Outline: as §1

[17] = tested on: TE-8 (Esophageal Squamous Cell Carcinoma)
Outline: as §1

[18] = tested on: VAL (B-Cell Non-Hodgkin's Lymphoma)
Outline: as §1

WM278 (Melanoma) = tested on: WM278 (Melanoma)
Outline: as §1

Compound | Bliss excess [1] | Bliss excess [2] | Bliss excess [3] | Bliss excess (GB-1 (Glioblastoma)) | Bliss excess [4] | Bliss excess [5] | Bliss excess [6] | Bliss excess [7] | Bliss excess [8] | Bliss excess [9] | Bliss excess [10] | Bliss excess [11] | Bliss excess [12] | Bliss excess [13] | Bliss excess [14] | Bliss excess [15] | Bliss excess [16] | Bliss excess [17] | Bliss excess [18] | Bliss excess (WM278 (Melanoma))
CN(C)CCCOc1ccc(-c2ccc3ncc4c(c3c2)n(C2CCOCC2)c(=O)n4C)cn1 [AZD0156] + C=CCn1c(=O)c2cnc(Nc3ccc(N4CCN(C)CC4)cc3)nc2n1-c1cccc(C(C)(C)O)n1 [AZD1775] (first compound max 1 µM, partner max 1 µM) | 0.0164 | -0.0638 | -0.0006 | -0.0219 | 0.0622 | -0.0144 | -0.0514 | -0.0219 | 0.0066 | -0.0607 | -0.0113 | -0.0242 | -0.0621 | -0.0158 | -0.0318 | -0.0683 | -0.0088 | -0.0104 | -0.0082 | -0.0331
CN(C)CCCOc1ccc(-c2ccc3ncc4c(c3c2)n(C2CCOCC2)c(=O)n4C)cn1 [AZD0156] + CCN(CCO)CCCOc1ccc2c(Nc3cc(CC(=O)Nc4cccc(F)c4)[nH]n3)ncnc2c1 [AZD2811] (first compound max 1 µM, 7x7, partner max 1 µM) | -0.025 | -0.0164 | 0.007 | -0.034 | 0.0156 | -0.0113 | -0.0332 | 0.0375 | 0.052 | 0.041 | -0.0411 | -0.0336 | -0.0241 | -0.0137 | 0.0292 | -0.0417 | -0.0813 | -0.0073 | -0.0341 | -0.0259
CN(C)CCCOc1ccc(-c2ccc3ncc4c(c3c2)n(C2CCOCC2)c(=O)n4C)cn1 [AZD0156] + C[C@@H]1COCCN1C2=NC(=NC(=C2)C3(CC3)[S@](=N)(=O)C)C4=C5C=CNC5=NC=C4 [AZD6738] (first compound max 1 µM, 7x7, partner max 10 µM) | 0.0549 | 0.0142 | -0.0221 | -0.0132 | 0.0663 | 0.0054 | -0.0315 | 0.0089 | 0.0318 | 0.0261 | -0.0072 | -0.0202 | -0.0343 | -0.0277 | 0.0249 | -0.0126 | 0.0699 | 0.0087 | -0.0049 | -0.0332
